# According to patent publication US8940897B2, “1,3,4-oxadiazole and 1,3,4-thiadiazole β-lactamase inhibitors” (priority 2012, dated 2015):
# Where a name gives a salt, the structure may show the parent alone.
# Test system: bacterial strains that express the class D cephalosporinase OXA-15
# Assay: Synergy MIC / standard BLI potentiation MIC assay, strains expressing OXA-15;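 further: more active means a lower MIC or sMIC than Avibactam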
# Type: cell-based, E. coli
# Conditions: in the presence of a β-lactam; comparator Avibactam (CCC)
# Protocol: Unless otherwise indicated, the activity of the BLI compounds can be described by the MIC value obtained from a Synergy MIC assay or a BLI potentiation assay (e.g as described herein), both of which are run in the presence of a β-lactam.
# The experimental protocol was performed according to Clinical and Laboratory Standards Institute (CLSI) guidelines with modifications as described below (CLSI guidelines can be derived from the CLSI document M07-A9 published in January 2012: “Methods for Dilution Antimicrobial Susceptibility Tests for Bacteria That Grow Aerobically; Approved Standard-Ninth Edition”).
# To prepare for MIC testing, frozen glycerol stocks of clinical isolates (Klebsiella pneumoniae, Eschericia coli, Enterobacter spp, Citrobacter spp, or Pseudomonas aeruginosa) were used to streak for isolated colonies on rich, non-selective, tryptic soy agar containing 5% sheep's blood (TSAB). Frozen glycerol stocks of laboratory engineered, isogenic E. coli strains, which contain cloned β-lactamase expressing plasmids were used to streak for isolated colonies on rich, selective LB agar supplemented with 25 μg/mL tetracycline to maintain the plasmid. All strains were incubated at 37° C. for 18-24 hrs.
# On the day of testing, primary cultures were started by scraping off 5-10 colonies from the TSAB plates containing clinical strains or the tetracycline supplemented LB plates containing engineered strains. The clinical strain material was suspended in ˜5 mL of cation adjusted Mueller Hinton Broth (CAMHB) in 14 mL culture tubes. The engineered strain material was suspended in CAMHB (supplemented with 25 μg/mL tetracycline) in 14 mL culture tubes. All strains were incubated at 37° C. with aeration (200 rpm) for ˜2 hrs until the optical density at 600 nm (OD600) was ≧0.1.
# The two compound components of the assay were each diluted in CAMHB and added to the 96-well broth microdilution assay plates. 50 μL of the β-lactam was added to each well of the assay plate in 2-fold dilutions with final concentrations ranging from 128 to 0.13 μg/mL. 25 μL of the BLI compound was added to all wells in the broth microdilution plates at a final concentration of 4 μg/mL. Inoculum cultures were prepared by standardizing the primary cultures to OD600=0.1 and then adding 20 μL of the adjusted primary culture per 1 mL CAMHB for clinical strains or CAMHB (supplemented with tetracycline at 100 μg/mL) for engineered strains, so that the final inoculum density was ˜10^5 colony forming units per milliliter. Diluted inoculum cultures were used to inoculate 25 μl, per well in 96-well broth microdilution assay plates. The final volume of each well was 100 μL and contained a β-lactam at different concentrations, a BLIcompound at 4 μg/mL concentration, the bacterial culture at an OD600 of approximately 0.001 and when necessary tetracycline at 25 μg/mL.
# Plates were incubated for 18-20 hours at 37° C. with aeration (200 rpm). Following incubation, growth was confirmed visually placing plates over a viewing apparatus (stand with a mirror underneath) and then OD600 was measured using a SpectraMax 340PC384 plate reader (Molecular Devices, Sunnyvale, Calif.). Growth was defined as turbidity that could be detected with the naked eye or achieving minimum OD600 of 0.1. MIC values were defined as the lowest concentration producing no visible turbidity.
# The synergy MIC (sMIC) assay determines the concentration of the BLI required to potentiate the activity of a fixed concentration of a β-lactam antibiotic against β-lactamase producing bacterial strains. The experimental protocol was performed according to Clinical and Laboratory Standards Institute (CLSI) guidelines with modifications as described below (CLSI guidelines can be derived from the CLSI document M07-A9 published in January 2012: “Methods for Dilution Antimicrobial Susceptibility Tests for Bacteria That Grow Aerobically; Approved Standard-Ninth Edition”). […]
smiles,measurement,value
"N=C(N)NCc1nnc([C@@H]2CC[C@@H]3CN2C(=O)N3OS(=O)(=O)O)o1 [Compound 704, (2S,5R)-2-(5-(guanidinomethyl)-1,3,4-oxadiazol-2-yl)-7-oxo-1,6-diazabicyclo[3.2.1]octan-6-yl hydrogen sulfate]",activity against bacterial strains that express OXA-15 β-lactamase compared with Avibactam,more active than Avibactam
"Nc1nnc([C@@H]2CC[C@@H]3CN2C(=O)N3OS(=O)(=O)O)o1 [Compound 707, (2S,5R)-2-(5-amino-1,3,4-oxadiazol-2-yl)-7-oxo-1,6-diazabicyclo[3.2.1]octan-6-yl hydrogen sulfate]",activity against bacterial strains that express OXA-15 β-lactamase compared with Avibactam,more active than Avibactam
"N=C(N)N1CCC(c2nnc([C@@H]3CC[C@@H]4CN3C(=O)N4OS(=O)(=O)O)o2)CC1 [Compound 712, (2S,5R)-2-(5-(1-carbamimidoylpiperidin-4-yl)-1,3,4-oxadiazol-2-yl)-7-oxo-1,6-diazabicyclo[3.2.1]octan-6-yl hydrogen sulfate]",activity against bacterial strains that express OXA-15 β-lactamase compared with Avibactam,more active than Avibactam
"O=C1N2C[C@@H](CC[C@H]2c2nnc(N3CCNCC3)o2)N1OS(=O)(=O)O [Compound 713, (2S,5R)-7-oxo-2-(5-(piperazin-1-yl)-1,3,4-oxadiazol-2-yl)-1,6-diazabicyclo[3.2.1]octan-6-yl hydrogen sulfate]",activity against bacterial strains that express OXA-15 β-lactamase compared with Avibactam,more active than Avibactam
"N=C(N)NCCCc1nnc([C@@H]2CC[C@@H]3CN2C(=O)N3OS(=O)(=O)O)o1 [Compound 714, (2S,5R)-2-(5-(3-guanidinopropyl)-1,3,4-oxadiazol-2-yl)-7-oxo-1,6-diazabicyclo[3.2.1]octan-6-yl hydrogen sulfate]",activity against bacterial strains that express OXA-15 β-lactamase compared with Avibactam,more active than Avibactam
"NCC(O)c1nnc([C@@H]2CC[C@@H]3CN2C(=O)N3OS(=O)(=O)O)o1 (stereo partly drawn) [Compound 715, (2S,5R)-2-(5-(2-amino-1-hydroxyethyl)-1,3,4-oxadiazol-2-yl)-7-oxo-1,6-diazabicyclo[3.2.1]octan-6-yl hydrogen sulfate]",activity against bacterial strains that express OXA-15 β-lactamase compared with Avibactam,more active than Avibactam
"NCCNCCc1nnc([C@@H]2CC[C@@H]3CN2C(=O)N3OS(=O)(=O)O)o1 [Compound 716, (2S,5R)-2-(5-(2-((2-aminoethyl)amino)ethyl)-1,3,4-oxadiazol-2-yl)-7-oxo-1,6-diazabicyclo[3.2.1]octan-6-yl hydrogen sulfate]",activity against bacterial strains that express OXA-15 β-lactamase compared with Avibactam,more active than Avibactam
"NCC(N)c1nnc([C@@H]2CC[C@@H]3CN2C(=O)N3OS(=O)(=O)O)o1 (stereo partly drawn) [Compound 717, (2S,5R)-2-(5-(1,2-diaminoethyl)-1,3,4-oxadiazol-2-yl)-7-oxo-1,6-diazabicyclo[3.2.1]octan-6-yl hydrogen sulfate]",activity against bacterial strains that express OXA-15 β-lactamase compared with Avibactam,more active than Avibactam
"O=C1N2C[C@@H](CC[C@H]2c2nnc(C3CCNCC3)s2)N1OS(=O)(=O)O [Compound 719, (2S,5R)-7-oxo-2-(5-(piperidin-4-yl)-1,3,4-thiadiazol-2-yl)-1,6-diazabicyclo[3.2.1]octan-6-yl hydrogen sulfate]",activity against bacterial strains that express OXA-15 β-lactamase compared with Avibactam,more active than Avibactam
"O=C1N2C[C@@H](CC[C@H]2c2nnc(CC3CNC3)o2)N1OS(=O)(=O)O [Compound 725, (2S,5R)-2-(5-(azetidin-3-ylmethyl)-1,3,4-oxadiazol-2-yl)-7-oxo-1,6-diazabicyclo[3.2.1]octan-6-yl hydrogen sulfate]",activity against bacterial strains that express OXA-15 β-lactamase compared with Avibactam,more active than Avibactam
"NCC(O)Cc1nnc([C@@H]2CC[C@@H]3CN2C(=O)N3OS(=O)(=O)O)o1 (stereo partly drawn) [Compound 733, (2S,5R)-2-(5-(3-amino-2-hydroxypropyl)-1,3,4-oxadiazol-2-yl)-7-oxo-1,6-diazabicyclo[3.2.1]octan-6-yl hydrogen sulfate]",activity against bacterial strains that express OXA-15 β-lactamase compared with Avibactam,more active than Avibactam
"N=C(N)N[C@H]1C[C@H](c2nnc([C@@H]3CC[C@@H]4CN3C(=O)N4OS(=O)(=O)O)o2)C1 [Compound 748, (2S,5R)-2-(5-((1r,3S)-3-guanidinocyclobutyl)-1,3,4-oxadiazol-2-yl)-7-oxo-1,6-diazabicyclo[3.2.1]octan-6-yl hydrogen sulfate]",activity against bacterial strains that express OXA-15 β-lactamase compared with Avibactam,more active than Avibactam
"N[C@H]1C[C@H](NCc2nnc([C@@H]3CC[C@@H]4CN3C(=O)N4OS(=O)(=O)O)o2)C1 [Compound 757, (2S,5R)-2-(5-(((1r,3S)-3-aminocyclobutyl)amino)methyl)-1,3,4-oxadiazol-2-yl)-7-oxo-1,6-diazabicyclo[3.2.1]octan-6-yl hydrogen sulfate]",activity against bacterial strains that express OXA-15 β-lactamase compared with Avibactam,more active than Avibactam
"O=C1N2C[C@@H](CC[C@H]2c2nnc(CNC3CCNCC3)o2)N1OS(=O)(=O)O [Compound 769, (2S,5R)-7-oxo-2-(5-((piperidin-4-ylamino)methyl)-1,3,4-oxadiazol-2-yl)-1,6-diazabicyclo[3.2.1]octan-6-yl hydrogen sulfate]",activity against bacterial strains that express OXA-15 β-lactamase compared with Avibactam,more active than Avibactam
"NC1CCN(c2nnc([C@@H]3CC[C@@H]4CN3C(=O)N4OS(=O)(=O)O)o2)CC1 [Compound 773, (2S,5R)-2-(5-(4-aminopiperidin-1-yl)-1,3,4-oxadiazol-2-yl)-7-oxo-1,6-diazabicyclo[3.2.1]octan-6-yl hydrogen sulfate]",activity against bacterial strains that express OXA-15 β-lactamase compared with Avibactam,more active than Avibactam
"O=C1N2C[C@@H](CC[C@H]2c2nnc([C@@H]3CNCCN3)o2)N1OS(=O)(=O)O [Compound 778, (2S,5R)-7-oxo-2-(5-((S)-piperazin-2-yl)-1,3,4-oxadiazol-2-yl)-1,6-diazabicyclo[3.2.1]octan-6-yl hydrogen sulfate]",activity against bacterial strains that express OXA-15 β-lactamase compared with Avibactam,more active than Avibactam
"N[C@H]1CC[C@@H](c2nnc([C@@H]3CC[C@@H]4CN3C(=O)N4OS(=O)(=O)O)o2)CC1 [Compound 780, (2S,5R)-2-(5-((1s,4R)-4-aminocyclohexyl)-1,3,4-oxadiazol-2-yl)-7-oxo-1,6-diazabicyclo[3.2.1]octan-6-yl hydrogen sulfate]",activity against bacterial strains that express OXA-15 β-lactamase compared with Avibactam,more active than Avibactam
"N[C@H]1CC[C@H](c2nnc([C@@H]3CC[C@@H]4CN3C(=O)N4OS(=O)(=O)O)o2)CC1 [Compound 781, (2S,5R)-2-(5-((1r,4S)-4-aminocyclohexyl)-1,3,4-oxadiazol-2-yl)-7-oxo-1,6-diazabicyclo[3.2.1]octan-6-yl hydrogen sulfate]",activity against bacterial strains that express OXA-15 β-lactamase compared with Avibactam,more active than Avibactam
"O=C1N2C[C@@H](CC[C@H]2c2nnc(CCCN3CCNCC3)o2)N1OS(=O)(=O)O [Compound 792, (2S,5R)-7-oxo-2-(5-(3-(piperazin-1-yl)propyl)-1,3,4-oxadiazol-2-yl)-1,6-diazabicyclo[3.2.1]octan-6-yl hydrogen sulfate]",activity against bacterial strains that express OXA-15 β-lactamase compared with Avibactam,more active than Avibactam
"O=C1N2C[C@@H](CC[C@H]2c2nnc(N3CCNCC3)s2)N1OS(=O)(=O)O [Compound 797, (2S,5R)-7-oxo-2-(5-(piperazin-1-yl)-1,3,4-thiadiazol-2-yl)-1,6-diazabicyclo[3.2.1]octan-6-yl hydrogen sulfate]",activity against bacterial strains that express OXA-15 β-lactamase compared with Avibactam,more active than Avibactam
